{
  "source": "patent EP3383888B9",
  "about": "“NEW PEPTIDES HAVING ANTIMICROBIAL ACTIVITY AND NEW ENZYME CAPABLE OF CONVERTING L-CONFIGURED RESIDUE IN D-CONFIGURED AMINO ACID IN A PEPTIDE” (Institut national de recherche pour l'agriculture, …, priority 2015, dated 2017)",
  "key": {"B. subtilis [1]": {"tested_on": "B. subtilis", "assay": "Inhibition assay on solid medium (plate growth inhibition)", "assay_type": "cell-based, Bacillus subtilis", "conditions": "200 µg of peptide spotted, 37°C, Fig. 5A", "experimental": "An overnight culture of the bacterial strain to be assayed was freshly inoculated to sterile BHI liquid medium. After 4 hours of bacterial growth at 37°C, the medium was diluted to 1/1000 and inoculated into a soft agarose medium pre-heated at 42°C. The agarose medium containing bacteria was overlaid on a previously jellified sterile BHI agarose layer. 200 µg of peptide was spotted onto the plate and bacterial growth proceeded at 37°C."}, "B. subtilis [2]": {"tested_on": "B. subtilis", "assay": "Inhibition assay on liquid medium (OD at 600 nm)", "assay_type": "cell-based, Bacillus subtilis", "conditions": "for Growth of B. subtilis in liquid LB medium (bacterial growth inhibition): Fig. 5B, Fig. 8a", "experimental": "(§1) An overnight culture of the bacterial strain to be assayed was freshly inoculated to sterile LB liquid medium. After 4 hours of bacterial growth at 37°C, the medium was diluted to 1/10,000 and inoculated into sterile liquid LB or BHI medium. Peptide solution was added (1/100) to a final concentration ranging from 0.01 to 100µM and OD at 600 nm was recorded continuously using a Tecan microplate reader (Infinite® 200 PRO series)."}, "Streptococcus agalactiae": {"tested_on": "Streptococcus agalactiae", "assay": "Inhibition assay on liquid medium (OD at 600 nm)", "assay_type": "cell-based", "conditions": "peptide at 100µM; Fig. 12", "experimental": "as §1"}},
  "note": "Square brackets hold non-standard residues; d marks the D form. Ends that are not written are not given here. Peptide text beside a SMILES is read from it. d(aIle) = CC[C@H](C)[C@@H](N)C(=O)O",
  "data": [
    {"compound": "CC[C@H](C)[C@@H](NC(=O)[C@H](Cc1c[nH]c2ccccc12)NC(=O)[C@H](CCCNC(=N)N)NC(=O)[C@H](CC(N)=O)NC(=O)[C@H](CCC(=O)O)NC(=O)[C@H](CCCCN)NC(=O)[C@H](CO)NC(=O)[C@H](CCCCN)NC(=O)[C@H](NC(=O)[C@H](Cc1ccccc1)NC(=O)[C@H](Cc1ccc(O)cc1)NC(=O)[C@H](Cc1c[nH]c2ccccc12)NC(=O)[C@H](CC(C)C)NC(=O)[C@H](CC(=O)O)NC(=O)[C@H](CC(N)=O)NC(=O)[C@@H](NC(=O)[C@H](CCCCN)NC(=O)[C@H](C)NC(=O)[C@H](CC(C)C)NC(=O)[C@H](CCCCN)NC(=O)[C@H](CCC(N)=O)NC(=O)[C@H](CO)NC(=O)[C@H](CCC(=O)O)NC(=O)[C@H](CC(=O)O)NC(=O)[C@H](CC(C)C)NC(=O)[C@H](CC(C)C)NC(=O)CNC(C)=O)C(C)C)C(C)C)C(=O)N[C@@H](CC(C)C)C(=O)NCC(=O)N[C@@H](CO)C(=O)NCC(=O)N[C@@H](Cc1c[nH]cn1)C(=O)O", "note": "[YydF18-49DD, Ac-GLLDESQKLAKVNDLWYF{d-V}KSKENRW{d-I}LGSGH (SEQ ID No 20)] (Ac-GLLDESQKLAKVNDLWYF[dV]KSKENRW[d(aIle)]LGSGH-OH)", "values": [
      {"measurement": "Plate growth inhibition assay of B. subtilis", "setting": "B. subtilis [1]", "value": "strong inhibition growth"},
      {"measurement": "Growth of B. subtilis in liquid LB medium (bacterial growth inhibition)", "setting": "B. subtilis [2]; liquid LB medium", "value": "bacterial growth inhibition"},
      {"measurement": "Growth of B. subtilis in liquid LB medium (bacterial growth inhibition)", "setting": "B. subtilis [2]; liquid LB medium, listed as epimerized peptide", "value": "strong and persistent inhibition"}
    ]},
    {"compound": "Ac-GLLDESQKLAKVNDLWYFVKSKENRWILGSGH (SEQ ID No 20) [YydF18-49, truncated form of YydF, residues 18 to 49, no modification (all L-amino acids)]", "values": [
      {"measurement": "Plate growth inhibition assay of B. subtilis", "setting": "B. subtilis [1]", "value": "devoid of activity"},
      {"measurement": "Growth of B. subtilis after addition of peptide at mid-exponential phase (cell density)", "setting": "B. subtilis [2]; liquid LB medium, peptide added after 3 hours of growth, Fig. 9", "value": "a clear slow down followed by a decrease of the cell density"}
    ]},
    {"compound": "WYFVKSQSNRWIVGSGH (SEQ ID No 65) (WYF[dV]KSQSNRW[dI]VGSGH) [Peptide-SP]", "values": [
      {"measurement": "Growth of Streptococcus agalactiae in liquid BHI medium", "setting": "Streptococcus agalactiae", "value": "inhibitors"}
    ]},
    {"compound": "YydF33-49DD: peptide of SEQ ID No 61 with the two epimerized residues D-Val36 and D-Ile44 (WYF[dV]KSKENRW[dI]LGSGH)", "values": [
      {"measurement": "potency relative to the YydF18-49DD peptide", "setting": "B. subtilis [2]; B. subtilis growth ratio, Fig. 8b&c", "value": 100, "unit": "times"},
      {"measurement": "Growth of B. subtilis in liquid LB medium (bacterial growth inhibition)", "setting": "B. subtilis [2]; liquid LB medium", "value": "inhibit bacterial growth"},
      {"measurement": "Growth of Streptococcus agalactiae in liquid BHI medium", "setting": "Streptococcus agalactiae", "value": "inhibited"}
    ]}
  ]
}
